From PubChem BioAssay AID328 (DTP/NCI, 2004) come the findings set out here.

“And” between values parts separate entries of the source, which are not always exact repeats. Equal values may be shown once. Inconclusive results and toxic doses are left out.

The test concerns BDF1 mice, P388 leukemia ip, median survival T/C. Description: NCI In Vivo Anticancer Drug Screen. Data for tumor model P388 Leukemia (intraperitoneal) in B6D2F1 (BDF1) mice. The following applies: endpoint: median survival time, higher = longer survival. A digest of the protocol:
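Each value expresses how treatment altered survival: treated-mouse outcome over vehicle-mouse outcome, both groups bearing the transplanted tumour.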

[1] abbreviates: dose: 12.5 mg/kg/injection, schedule: Q01DX009 (ip), vehicle: saline with Tween-80.
Where [2] appears, read: dose: 25.0 mg/kg/injection, schedule: Q01DX009 (ip), vehicle: saline with Tween-80.
[3] abbreviates: dose: 50.0 mg/kg/injection, schedule: Q01DX009 (ip), vehicle: saline with Tween-80.
The mark [4] stands for this setting: dose: 100.0 mg/kg/injection, schedule: Q01DX009 (ip), vehicle: saline with Tween-80.
The mark [5] stands for this setting: dose: 50.0 mg/kg/injection, schedule: Q01DX009 (ip), vehicle: Klucel (hydroxypropylcellulose) (HPC).
The mark [6] stands for this setting: dose: 100.0 mg/kg/injection, schedule: Q04DX003 (ip), vehicle: Klucel (hydroxypropylcellulose) (HPC).
Setting [7] is: dose: 200.0 mg/kg/injection, schedule: Q04DX003 (ip), vehicle: Klucel (hydroxypropylcellulose) (HPC).
Setting [8] is: dose: 400.0 mg/kg/injection, schedule: Q04DX003 (ip), vehicle: Klucel (hydroxypropylcellulose) (HPC).
[9] abbreviates: dose: 50.0 mg/kg/injection, schedule: Q01DX009 (ip), vehicle: saline.
The mark [10] stands for this setting: dose: 100.0 mg/kg/injection, schedule: Q01DX009 (ip), vehicle: saline.
Setting [11] is: dose: 200.0 mg/kg/injection, schedule: Q01DX009 (ip), vehicle: saline.
Where [12] appears, read: dose: 200.0 mg/kg/injection, schedule: Q01DX009 (ip), vehicle: saline with Tween-80.
Setting [13] is: dose: 100.0 mg/kg/injection, schedule: Q04DX003 (ip), vehicle: saline with Tween-80.
[14] abbreviates: dose: 200.0 mg/kg/injection, schedule: Q04DX003 (ip), vehicle: saline with Tween-80.
[15] abbreviates: dose: 400.0 mg/kg/injection, schedule: Q04DX003 (ip), vehicle: saline with Tween-80.

Turning to `CCCCCCCCCCC(C)c1ccc(S(=O)(=O)O)cc1` (centres undefined), the T/C is, setting by setting: under setting [1], 103 % of control; under setting [2], 110 % of control; (dose: 33.0 mg/kg/injection, schedule: Q01DX009 (ip), vehicle: saline with Tween-80) 120 % of control; under setting [3], 115 % of control and 116 % of control and 118 % of control; (dose: 75.0 mg/kg/injection, schedule: Q01DX009 (ip), vehicle: saline with Tween-80) 110 % of control; under setting [4], 119 % of control.
Consider `CO[C@@H]([CH2][Hg][S]C#N)[C@@H]([CH2][Hg][S]C#N)OC`, for which the T/C was 110 % of control (dose: 6.25 mg/kg/injection, schedule: Q01DX009 (ip), vehicle: other); 120 % of control (dose: 12.5 mg/kg/injection, schedule: Q01DX009 (ip), vehicle: other); 100 % of control and 109 % of control (dose: 25.0 mg/kg/injection, schedule: Q01DX009 (ip), vehicle: other); 100 % of control (dose: 25.0 mg/kg/injection, schedule: Q04DX003 (ip), vehicle: other); 103 % of control (dose: 50.0 mg/kg/injection, schedule: Q04DX003 (ip), vehicle: other); 90 % of control (dose: 100.0 mg/kg/injection, schedule: Q04DX003 (ip), vehicle: saline sonified).
Turning to `COc1ccc(C(C#N)N2CCCCC2)cc1` (centres undefined), the T/C is 115 % of control (dose: 12.5 mg/kg/injection, schedule: Q01DX009 (ip), vehicle: Klucel (hydroxypropylcellulose) (HPC)); 100 % of control (dose: 25.0 mg/kg/injection, schedule: Q01DX009 (ip), vehicle: Klucel (hydroxypropylcellulose) (HPC)); 113 % of control (dose: 25.0 mg/kg/injection, schedule: Q04DX003 (ip), vehicle: Klucel (hydroxypropylcellulose) (HPC)); 100 % of control under setting [5]; 100 % of control (dose: 50.0 mg/kg/injection, schedule: Q04DX003 (ip), vehicle: Klucel (hydroxypropylcellulose) (HPC)); 100 % of control and 104 % of control under setting [6].
For `COC(=O)C(CO)NC(=O)OCc1ccc(OC)cc1` (centres undefined), the T/C is, setting by setting: (dose: 12.5 mg/kg/injection, schedule: Q01DX009 (ip), vehicle: distilled water + Tween-80) 87 % of control; (dose: 25.0 mg/kg/injection, schedule: Q01DX009 (ip), vehicle: distilled water + Tween-80) 89 % of control; (dose: 50.0 mg/kg/injection, schedule: Q01DX009 (ip), vehicle: distilled water + Tween-80) 104 % of control; (dose: 100.0 mg/kg/injection, schedule: Q01DX009 (ip), vehicle: distilled water + Tween-80) 114 % of control.
With `COc1cc(N(C)C)c(OC)cc1C=O`, the T/C was 100 % of control under setting [5]; 90 % of control (dose: 100.0 mg/kg/injection, schedule: Q01DX009 (ip), vehicle: Klucel (hydroxypropylcellulose) (HPC)); 95 % of control under setting [6]; 109 % of control (dose: 200.0 mg/kg/injection, schedule: Q01DX009 (ip), vehicle: Klucel (hydroxypropylcellulose) (HPC)); 95 % of control under setting [7]; 100 % of control under setting [8].
In the case of `O=C(O)C(Cl)Cc1cnc[nH]1` (centres undefined), the T/C was 97 % of control and 91 % of control under setting [9]; 107 % of control and 87 % of control under setting [10]; 103 % of control and 95 % of control under setting [11].
For `CCOC1OCN(c2ccc(OC)cc2)CC1(C)C` (centres undefined), the T/C by setting is: under setting [3], 98 % of control and 100 % of control; under setting [4], 113 % of control and 114 % of control; under setting [12], 116 % of control and 124 % of control.
As for `S=C(S)N1CCOCC1`, the T/C is, setting by setting: under setting [10], 91 % of control; (dose: 100.0 mg/kg/injection, schedule: Q04DX003 (ip), vehicle: saline) 100 % of control; under setting [11], 100 % of control; (dose: 200.0 mg/kg/injection, schedule: Q04DX003 (ip), vehicle: saline) 95 % of control; (dose: 400.0 mg/kg/injection, schedule: Q01DX009 (ip), vehicle: saline) 95 % of control; (dose: 400.0 mg/kg/injection, schedule: Q04DX003 (ip), vehicle: saline) 86 % of control.
`O=C(OC(c1ccccc1)c1ccccc1)C(CSC(c1ccccc1)(c1ccccc1)c1ccccc1)NC(c1ccccc1)(c1ccccc1)c1ccccc1` (centres undefined): the T/C reads like this: under setting [6], 100 % of control; under setting [7], 109 % of control; under setting [8], 104 % of control.
As to `CCOC(=O)c1ccc(OP(=O)(N(C)C)N(C)C)cc1`, the T/C reads like this: under setting [1], 101 % of control; under setting [2], 110 % of control; under setting [3], 100 % of control and 119 % of control.
For the compound `CC(=O)Nc1ccc(S(=O)(=O)c2ccc([N+](=O)[O-])cc2)cc1`, the T/C (dose: 50.0 mg/kg/injection, schedule: Q04DX003 (ip), vehicle: saline with Tween-80) is 101 % of control; the T/C under setting [13] is 106 % of control; the T/C under setting [14] was 105 % of control; the T/C under setting [15] is 99 % of control.
Take `C/C(=N\Nc1ccc([N+](=O)[O-])cc1[N+](=O)[O-])C(F)(F)F`: the T/C (dose: 44.0 mg/kg/injection, schedule: Q01DX009 (ip), vehicle: other) was 95 % of control; the T/C (dose: 66.0 mg/kg/injection, schedule: Q01DX009 (ip), vehicle: other) was 100 % of control; the T/C (dose: 100.0 mg/kg/injection, schedule: Q01DX009 (ip), vehicle: other) was 100 % of control; the T/C under setting [6] is 100 % of control; the T/C (dose: 150.0 mg/kg/injection, schedule: Q01DX009 (ip), vehicle: other) was 95 % of control; the T/C under setting [12] is 115 % of control. For the same compound, the T/C runs as follows: under setting [7], 100 % of control; (dose: 400.0 mg/kg/injection, schedule: Q01DX009 (ip), vehicle: saline with Tween-80) 100 % of control; under setting [8], 100 % of control.
Turning to `CC(C)(S(=O)(=O)Oc1ccccc1)S(=O)(=O)Oc1ccccc1`, the T/C was 93 % of control under setting [13], 87 % of control under setting [14] and 92 % of control under setting [15].
As to `CCCCN(CCCC)CCC(O)c1cc2ccc(C(F)(F)F)cc2c2cc(C(F)(F)F)ccc12` (centres undefined), the T/C is 94 % of control under setting [3], 90 % of control under setting [4] and 110 % of control under setting [12].
As to `C=C(C)C(=O)O[C@H]1CC2=C[C@@H](C[C@@]3(C)O[C@@H]3[C@H]3OC(=O)C(=C)[C@@H]31)OC2=O`, the T/C is 113 % of control (dose: 2.2 mg/kg/injection, schedule: Q01DX010 (ip), vehicle: carboxymethylcellulose (CMC)); 109 % of control (dose: 2.5 mg/kg/injection, schedule: Q01DX009 (ip), vehicle: saline + alcohol); 118 % of control (dose: 3.3 mg/kg/injection, schedule: Q01DX010 (ip), vehicle: carboxymethylcellulose (CMC)); 113 % of control (dose: 5.0 mg/kg/injection, schedule: Q01DX010 (ip), vehicle: carboxymethylcellulose (CMC)); 152 % of control (dose: 7.5 mg/kg/injection, schedule: Q01DX010 (ip), vehicle: carboxymethylcellulose (CMC)); 118 % of control (dose: 7.5 mg/kg/injection, schedule: Q01DX010 (ip), vehicle: saline). The T/C runs as follows: (dose: 10.0 mg/kg/injection, schedule: Q01DX009 (ip), vehicle: saline) 120 % of control; (dose: 15.0 mg/kg/injection, schedule: Q01DX010 (ip), vehicle: carboxymethylcellulose (CMC)) 157 % of control; (dose: 15.0 mg/kg/injection, schedule: Q01DX010 (ip), vehicle: saline) 109 % of control; (dose: 20.0 mg/kg/injection, schedule: Q01DX009 (ip), vehicle: saline + alcohol) 122 % of control; (dose: 30.0 mg/kg/injection, schedule: Q01DX010 (ip), vehicle: carboxymethylcellulose (CMC)) 115 % of control; (dose: 30.0 mg/kg/injection, schedule: Q01DX010 (ip), vehicle: saline) 118 % of control. Further, the T/C is, setting by setting: (dose: 40.0 mg/kg/injection, schedule: Q01DX009 (ip), vehicle: saline) 160 % of control; (dose: 60.0 mg/kg/injection, schedule: Q01DX010 (ip), vehicle: saline) 90 % of control.
Take `Nc1cc(I)c2cccnc2c1O`: the T/C reads like this: (dose: 6.25 mg/kg/injection, schedule: Q01DX009 (ip), vehicle: saline) 93 % of control and 115 % of control; (dose: 12.5 mg/kg/injection, schedule: Q01DX009 (ip), vehicle: saline) 90 % of control and 99 % of control; (dose: 25.0 mg/kg/injection, schedule: Q01DX009 (ip), vehicle: saline) 123 % of control; under setting [9], 117 % of control; under setting [10], 124 % of control.
